From patent US11016085B2, “ZNT8 assays for drug development and pharmaceutical compositions” (THE JOHNS HOPKINS UNIVERSITY, priority 2016, dated 2021)
“Also recorded” adds a separate entry of the source.

T1: human ZnT8 R325 (R-form) (Homo sapiens, UniProt Q8IWU4)
T1 construct: The human ZnT8 cDNA insert was further subcloned into a pcDNA5/FRT/TO expression vector; made in house
T1 sequence (Q8IWU4 1-320 isoform Q8IWU4-2): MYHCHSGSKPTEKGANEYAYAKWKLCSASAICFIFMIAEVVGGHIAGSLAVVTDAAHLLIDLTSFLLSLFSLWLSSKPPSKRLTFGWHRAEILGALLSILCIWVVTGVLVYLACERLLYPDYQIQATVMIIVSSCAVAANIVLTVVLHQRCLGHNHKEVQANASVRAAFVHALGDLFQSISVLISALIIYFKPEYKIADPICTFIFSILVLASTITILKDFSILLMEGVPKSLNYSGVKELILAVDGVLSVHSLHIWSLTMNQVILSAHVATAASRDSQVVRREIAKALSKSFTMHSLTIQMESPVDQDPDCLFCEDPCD

T2: human ZnT8 W325 (W-form) (Homo sapiens, UniProt Q8IWU4, R325W)
T2 construct: The human ZnT8 cDNA insert was further subcloned into a pcDNA5/FRT/TO expression vector; made in house
T2 sequence (Q8IWU4 1-320 isoform Q8IWU4-2 R276W): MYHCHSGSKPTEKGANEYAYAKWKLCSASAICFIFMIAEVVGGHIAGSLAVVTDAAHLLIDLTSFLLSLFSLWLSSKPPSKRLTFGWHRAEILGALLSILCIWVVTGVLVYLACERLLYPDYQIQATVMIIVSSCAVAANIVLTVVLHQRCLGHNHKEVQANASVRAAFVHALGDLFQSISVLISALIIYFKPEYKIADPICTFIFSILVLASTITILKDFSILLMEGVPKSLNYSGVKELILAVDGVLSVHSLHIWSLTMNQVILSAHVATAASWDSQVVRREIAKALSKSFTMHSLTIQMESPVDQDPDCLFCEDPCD

T3: human ZnT8 AA-form (H220A, D224A) (Homo sapiens, UniProt Q8IWU4, D224A/H220A)
T3 construct: The human ZnT8 cDNA insert was further subcloned into a pcDNA5/FRT/TO expression vector; made in house
T3 sequence (Q8IWU4 1-320 isoform Q8IWU4-2 H171A/D175A): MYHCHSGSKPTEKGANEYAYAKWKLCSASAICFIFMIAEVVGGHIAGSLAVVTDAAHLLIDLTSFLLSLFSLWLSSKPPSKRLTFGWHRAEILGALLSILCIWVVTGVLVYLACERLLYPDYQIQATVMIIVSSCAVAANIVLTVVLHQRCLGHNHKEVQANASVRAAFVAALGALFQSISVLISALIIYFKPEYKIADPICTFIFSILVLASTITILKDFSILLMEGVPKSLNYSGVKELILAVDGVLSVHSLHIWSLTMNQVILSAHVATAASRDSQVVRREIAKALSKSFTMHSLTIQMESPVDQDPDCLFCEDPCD


Experiments:
human ZnT8 R325 (R-form) = target: T1, human ZnT8 R325 (R-form); assay: Stopped-flow zinc transport kinetics in reconstituted proteoliposomes (Fluozin-3), R325 variant; type: biochemical; conditions: for effect on zinc transport activity (Vmax), R-form: lipid in reconstituted proteoliposomes, reference level = Vmax of the AA-form; for increase of Vmax, R-form: third anionic phospholipid added to DOPC:DOPE (2:1), giving 2:1:1
Description: (§1) 24 hour after induction, early-passage cells (passage number <10) at 90% confluence were scraped on ice and collected in the assay buffer supplemented with complete mini EDTA free protease cocktail tablets as specified by the manufacturer (Sigma). Cell suspension was homogenized by 40 passages through a high-shear fluid processor at 120 psi (Microfluidics), and then the membrane fraction was pelleted by ultracentrifugation at 258k×g for 60 min. The membrane pellet was re-suspended in a solubilization buffer (assay buffer plus 25% glycerol). DDM was added to solubilize the membrane according to the weight of the membrane pellet at a DDM-to-membrane ratio of 1:5 (wt/wt). The membrane crude extract was cleared off debris by ultracentrifugation at 258k×g for 15 min. The supernatant was applied to Talon affinity resins (GE Healthcare) and incubated at 8° C. on a rotary shaker for 45 min. The resin was then minimally washed by solubilization buffer supplemented with 25 mM imidazole, and then the immobilized ZnT8 variant was eluted by increasing the imidazole concentration to 250 mM. The molecular identity of the eluted ZnT8 variant was validated by western blotting using two antibodies to the C-terminal His-tag (Cell signaling Technology, cat. #2365S, catalog number, 1:1000 dilution) and to a linear peptide epitope (Proteintech, cat. #16169-1-AP, 1:500 dilution), respectively. The purity of the eluted proteins was assessed by SDS-PAGE with imperial protein staining (Thermo Scientific). Preformed liposomes with a defined lipid composition as indicated were prepared by mixing stock solutions of lipids in chloroform. The lipid mixture was dried under a stream of nitrogen gas, and traces of chloroform were removed by placing the lipids under vacuum overnight at room temperature. Dried lipids were rehydrated in a Pyrex borosilicate glass tube with assay buffer to a lipid concentration of 50 mg/ml, and then sonicated in a cup-horn sonicator at 100 W for 2 min (cycles of 10 son, 10 s off) in an ice-chilled water bath. The resulting liposome suspension was diluted with assay buffer to a final lipid concentration of 7.5 mg/ml with DDM added at a DDM/lipids ratio of 1:1 (wt/wt). The DDM-liposome mixture was incubated at room temperature on a rotary shaker for ˜3 hours until a gel-like appearance occurred. Reconstitution of ZnT8 variants took place immediately after eluted from Talon resins by mixing a ZnT8 variant, or an equal volume of elution buffer, with DDM-destabilized preformed liposomes at an estimated protein-to-lipid wt/wt ratio of 1:200. The reconstitution mixture was incubated on a rotary shaker at 8° C. for 1 hr, then freshly prepared, methanol-washed polystyrene beads (Bio-Beads, SM-2, Bio-Rad) were added to the reconstitution mixture in a 60:1 wt/wt ratio to DDM. After incubation overnight at 8° C., the resulting proteoliposomes or liposomes (negative control) were separated from the detergent-soaked polystyrene beads, and pelleted by ultracentrifugation (258k×g, 2 hr). […]
(§2) Experiments were performed at 8° C. on a SFM-3000 stopped-flow apparatus (Bio-logic). […] The reactants were excited at 490 nm, and emissions were monitored at 525 nm using a 10 nm bandpass cut-off filter. Kinetic traces were recorded over a time course of 10 seconds with instrument offset and gain kept constant for all the experiments. […]

human ZnT8 W325 (W-form) = target: T2, human ZnT8 W325 (W-form); assay: Stopped-flow zinc transport kinetics in reconstituted proteoliposomes (Fluozin-3), W325 variant; type: biochemical; conditions: for effect on zinc transport activity (Vmax), W-form: lipid in reconstituted proteoliposomes, reference level = Vmax of the AA-form; for increase of Vmax, W-form: third anionic phospholipid added to DOPC:DOPE (2:1), giving 2:1:1
Description: as §1, §2

HEK293 cells = assay: Vesicular zinc uptake in real time (Zinpyr-1, 96-well microplate); type: cell-based, human; conditions: 383 nM free zinc, 1 uM pyrithione, 15° C., induced expression
Description: The free zinc concentration in the ADA-EGTA dual buffering system was calculated using maxchelator (maxchelator.stanford.edu). Induced cells were loaded with Zinpry-1, trypsinized, resuspended in an ice-chilled plain uptake buffer with no ZnSO4 added. Cells with the expression of each ZnT8 variant or the empty vector were counted, adjusted to a density of 4×10^6 cells/ml, and dispensed in 50-[…] aliquots to a clear-bottom 96-well microplate (Greiner bio-one). Initial Zinpry-1 fluorescence (F0) was recorded from the bottom on a Flexstation-3 microplate reader (Molecular dynamics), and then zinc-uptakes were initiated by adding 50 ul uptake buffers with 2× free zinc concentrations to each well. The Zinpry-1 fluorescence increases in response to various free zinc concentrations were recorded at 15° C. in the kinetic mode of Flexstation over a time course of 10 min and normalized to Zinpyr-1 loading (F0). The fluorescence responses reached a linear phase in 2 min after the uptake temperature approached equilibrium. The rates of zinc uptake were calculated by linear regression of the Zinpyr-1 signals from 2 to 10 min. All measurements were performed in 12 replicates, and fluorescence readings were obtained by averaging over 8-10 measurements that gave consistent results. Most aberrant measurements occurred in the first and last two columns of the microplate due to pipetting errors.

[1] = target: T3, human ZnT8 AA-form (H220A, D224A); assay: Stopped-flow zinc transport kinetics in reconstituted proteoliposomes (Fluozin-3), AA-form; type: biochemical
Description: 24 hour after induction, early-passage cells (passage number <10) at 90% confluence were scraped on ice and collected in the assay buffer supplemented with complete mini EDTA free protease cocktail tablets as specified by the manufacturer (Sigma). Cell suspension was homogenized by 40 passages through a high-shear fluid processor at 120 psi (Microfluidics), and then the membrane fraction was pelleted by ultracentrifugation at 258k×g for 60 min. The membrane pellet was re-suspended in a solubilization buffer (assay buffer plus 25% glycerol). DDM was added to solubilize the membrane according to the weight of the membrane pellet at a DDM-to-membrane ratio of 1:5 (wt/wt). The membrane crude extract was cleared off debris by ultracentrifugation at 258k×g for 15 min. The supernatant was applied to Talon affinity resins (GE Healthcare) and incubated at 8° C. on a rotary shaker for 45 min. […] The purity of the eluted proteins was assessed by SDS-PAGE with imperial protein staining (Thermo Scientific). […]
as §2

Molecule | effect on zinc transport activity (Vmax), R-form (human ZnT8 R325 (R-form)) | effect on zinc transport activity (Vmax), W-form (human ZnT8 W325 (W-form)) | increase of Vmax, R-form (human ZnT8 R325 (R-form)) [fold] | increase of Vmax, W-form (human ZnT8 W325 (W-form)) [fold] | other results
Lysophosphatidylcholine [LPC] | below the reference level of the AA-form; also recorded: strongly inhibit | below the reference level of the AA-form; also recorded: strongly inhibit |  |  | 
CCCCCCCC/C=C\CCCCCCCC(=O)OC[C@H](COP(=O)(O)OCCN)OC(=O)CCCCCCC/C=C\CCCCCCCC [DOPE, 1,2-di-(9Z-octadecenoyl)-sn-glycero-3-phosphoethanolamine] | progressively reduced the Vmax | modest effects |  |  | 
CCCCCCCC/C=C\CCCCCCCC(=O)OC[C@H](COP(=O)(O)OCC(O)CO)OC(=O)CCCCCCC/C=C\CCCCCCCC (stereo partly shown) [DOPG] |  |  | 6.1 | 2.0 | 
CC(C)CCC[C@@H](C)[C@H]1CC[C@H]2[C@@H]3CC=C4C[C@@H](O)CC[C@]4(C)[C@H]3CC[C@]12C [cholesterol] | below the reference level of the AA-form; also recorded: strongly inhibit | below the reference level of the AA-form; also recorded: strongly inhibit |  |  | 
CCCCCCCC/C=C\CCCCCCCC(=O)OC[C@H](COP(=O)(O)OC[C@H](N)C(=O)O)OC(=O)CCCCCCC/C=C\CCCCCCCC [DOPS, 1,2-dioleoyl-sn-glycero-3-phospho-L-serine] |  |  | 3.5 | 2.3 | 
AA-form: His-tagged human ZnT8 with H220A, D224A double mutation of the predicted transport-site (protein, UniProt Q8IWU4 1-369, looked up, variant H220A D224A, His tag, His-tagged human ZnT8 with H220A, D224A double mutation of the predicted transport-site) Proton-coupled zinc …: MEFLERTYLVNDKAAKMYAFTLESVELQQKPVNKDQCPRERPEELESGGMYHCHSGSKPTEKGANEYAYAKWKLCSASAICFIFMIAEVVGGHIAGSLAVVTDAAHLLIDLTSFLLSLFSLWLSSKPPSKRLTFGWHRAEILGALLSILCIWVVTGVLVYLACERLLYPDYQIQATVMIIVSSCAVAANIVLTVVLHQRCLGHNHKEVQANASVRAAFVAALGALFQSISVLISALIIYFKPEYKIADPICTFIFSILVLASTITILKDFSILLMEGVPKSLNYSGVKELILAVDGVLSVHSLHIWSLTMNQVILSAHVATAASRDSQVVRREIAKALSKSFTMHSLTIQMESPVDQDPDCLFCEDPCD |  |  |  |  | rate of vesicular zinc accumulation (HEK293 cells): significantly faster than the basal level of Blk; Km increase compared to the R-form [1]: 24 fold; Vmax/Km decrease compared to the R-form [1]: 59 fold
